Assay results published in patent US20060247271A1, “Sulphonyl hydroxamic acid derivatives as inhibitors of s-cd23” (priority 2003, published 2006).

Tests used:
[1] = tested on: release of soluble CD23 (RPMI 8866 cell plasma membranes); assay: RPMI 8866 cell membrane CD23 cleavage activity assay; assay type: biochemical, human; conditions: RPMI 8866 plasma membranes, 37° C., sCD23 by EIA; read-out: IC50, inhibition of production of sCD23
Description: Procedure 1: The ability of test compounds to inhibit the release of soluble CD23 was investigated by use of the following procedure.
RPMI 8866 Cell Membrane CD23 Cleavage Activity Assay:
Plasma membranes from RPMI 8866 cells, a human Epstein-Barr virus transformed B-cell line (Sarfati et al., Immunology 60 [1987] 539-547) expressing high levels of CD23 are purified using an aqueous extraction method. Cells resuspended in homogenization buffer (20 mM HEPES pH 7.4, 150 mM NaCl, 1.5 mM MgCl2, 1 mM DTT) are broken by N2 cavitation in a Parr bomb and the plasma membrane fraction mixed with other membranes is recovered by centrifugation at 10,000×g. […]
The fractionated membranes are incubated at 37° C. for times up to 4 hrs to produce fragments of CD23 which are separated from the membrane by filtration in 0.2 micron Durapore filter plates (Millipore) after quenching the assay with 5 uM Preparation 1 from WO 95/31457 ([4-(N-Hydroxyamino)-2-(R)-isobutyl-3-(S)-(2-thiophenethiomethyl)succinyl]-(S)-phenylalanine—methylamide sodium salt, prepared according to the procedure descibed in Example 11 of WO 90/05719). sCD23 released from the membrane is determined using the EIA kit from The Binding Site (Birmingham, UK) or a similar one utilising MHM6 anti-CD23 mAb [Rowe et al., Int. […]

MMP-13 = biological target: T1, MMP-13 (Homo sapiens, UniProt P45452); assay: General MMP inhibition fluorescence quench assay, MMP-13; assay type: biochemical; conditions: room temperature
T1 construct: purchased Calbiochem
Description: (§1) General MMP Inhibition Assays:
(§2) Inhibition of matrix metalloprotease activity was determined using a fluorescence quench assay with appropriate substrate. For example, MMP activity was determined using MMP activated using trypsin, according to Lark et al, Connective Tissue Res. 25, 52 (1990). The MMP is incubated at room temperature in a microtitre plate in a total volume of 100 ul, containing 0.15 M Tris Cl, 15 mM CaCl2, 0.2 M NaCl, pH 7.6 (assay buffer); inhibitor at concentrations up to 100 uM, with no more than 2% DMSO final concentration, 10 uM substrate (such as SDP-3815-PI for MMP-1, Peptides International). The MMP concentration is <10 nM, and determined empirically with the appropriate substrate to give at least a 20-fold increase in fluorescence emission in 30 min. Fluorescent excitation wavelength was 355 nm, emission wavelength 400-460 nm, and data points are collected to generate slope (change in fluorescence with time). Percent inhibition for each concentration is calculated from the slope at time zero, and IC50 values from the concentration dependence. MMP-1, 2, 3, 7, 9, 13, 14 may all be assayed in the same manner, using commercially available substrates reported to be effective for each enzyme. Enzymes were obtained from Calbiochem and activated using the same trypsin method.

[2] = biological target: T2, human recombinant collagenase (Homo sapiens, UniProt P03956); assay: Collagenase inhibition assay; assay type: biochemical; conditions: 37° C., 18 h, acetylated 3H type 1 bovine collagen
T2 construct: made in house; host or cells: E. coli
T2 sequence (P03956 100-469): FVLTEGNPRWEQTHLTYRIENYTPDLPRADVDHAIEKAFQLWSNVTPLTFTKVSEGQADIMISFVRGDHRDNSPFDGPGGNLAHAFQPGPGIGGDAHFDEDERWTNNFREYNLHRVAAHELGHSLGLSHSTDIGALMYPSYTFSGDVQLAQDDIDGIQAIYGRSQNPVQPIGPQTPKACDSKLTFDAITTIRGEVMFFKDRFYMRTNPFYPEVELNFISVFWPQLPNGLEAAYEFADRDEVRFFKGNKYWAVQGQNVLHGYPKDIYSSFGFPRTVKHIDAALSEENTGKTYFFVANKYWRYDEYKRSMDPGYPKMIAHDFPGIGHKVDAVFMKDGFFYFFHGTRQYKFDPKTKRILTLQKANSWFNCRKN
Description: Procedure 2: The ability of test compounds to inhibit matrix metalloproteases was investigated using the following procedures.
Collagenase Inhibition Assay:
The potency of compounds to act as inhibitors of collagenase was determined by the method of Cawston and Barrett (Anal. Biochem. 99, 340-345, 1979), hereby incorporated by reference, whereby a 1 mM solution of the inhibitor being tested or dilutions thereof, was incubated at 37° C. for 18 h with collagen and human recombinant collagenase, from synovial fibroblasts cloned, expressed and purified from E. Coli, (buffered with 150 mM Tris, pH 7.6, containing 15 mM calcium chloride, 0.05% Brij 35, 200 mM sodium chloride and 0.02% sodium azide). The collagen was acetylated ^3H type 1 bovine collagen prepared by the method of Cawston and Murphy (methods in Enzymology 80, 711,1981) The samples were centrifuged to sediment undigested collagen and an aliquot of the radioactive supernatant removed for assay on a scintillation counter as a measure of hydrolysis. The collagenase activity in the presence of 1 mM inhibitor, or dilution thereof, was compared to activity in a control devoid of inhibitor and the results reported as that concentration effecting 50% of the collagenase (IC50).

MMP-3 = biological target: T3, MMP-3 (Homo sapiens, UniProt P08254); assay: General MMP inhibition fluorescence quench assay, MMP-3; assay type: biochemical; conditions: room temperature
T3 construct: purchased Calbiochem
T3 sequence (P08254 100-477, species assumed): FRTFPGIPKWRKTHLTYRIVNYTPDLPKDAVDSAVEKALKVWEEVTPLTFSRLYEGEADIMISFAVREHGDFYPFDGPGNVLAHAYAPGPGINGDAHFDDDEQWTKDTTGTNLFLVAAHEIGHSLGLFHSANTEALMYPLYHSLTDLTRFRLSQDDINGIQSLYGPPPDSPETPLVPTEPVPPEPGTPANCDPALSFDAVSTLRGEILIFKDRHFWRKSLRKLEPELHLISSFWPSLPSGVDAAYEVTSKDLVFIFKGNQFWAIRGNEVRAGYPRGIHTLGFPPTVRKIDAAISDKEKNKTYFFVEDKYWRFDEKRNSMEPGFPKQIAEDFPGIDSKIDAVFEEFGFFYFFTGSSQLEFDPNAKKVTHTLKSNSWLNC
Description: as §1, §2

| IC50 [1] [µM] | IC50 (MMP-13) [µM] | IC50 [2] [µM] | IC50 (MMP-3) [µM] | Structure (SMILES) |
| --- | --- | --- | --- | --- |
| 0.11 | 7 | – | – | CCCO[C@@H](CS(=O)(=O)Cc1cnc2ccccc2c1)C(=O)NO [Example 2, (R)—N-Hydroxy-2-propoxy-3-(quinolin-3-ylmethanesulfonyl)-propionamide] |
| 0.01 | – | > 10 | > 10 | O=C(NO)C(CS(=O)(=O)Cc1cnc2ccccc2c1)c1ccccc1 (centres unmarked) [Example 1, N-Hydroxy-2-phenyl-3-(3-quinolylmethanesulfonyl)-propionamide] |
